Laboratory results taken from ChEMBL document CHEMBL1201862, “PubChem BioAssay data set” (2004).
Calls of active or inactive are those of the source.

How the values were obtained:
[1] = biological target: T1, Tyrosine-protein phosphatase non-receptor type 7 (Homo sapiens, UniProt P35236); format: functional
T1 sequence (P35236 whole entry): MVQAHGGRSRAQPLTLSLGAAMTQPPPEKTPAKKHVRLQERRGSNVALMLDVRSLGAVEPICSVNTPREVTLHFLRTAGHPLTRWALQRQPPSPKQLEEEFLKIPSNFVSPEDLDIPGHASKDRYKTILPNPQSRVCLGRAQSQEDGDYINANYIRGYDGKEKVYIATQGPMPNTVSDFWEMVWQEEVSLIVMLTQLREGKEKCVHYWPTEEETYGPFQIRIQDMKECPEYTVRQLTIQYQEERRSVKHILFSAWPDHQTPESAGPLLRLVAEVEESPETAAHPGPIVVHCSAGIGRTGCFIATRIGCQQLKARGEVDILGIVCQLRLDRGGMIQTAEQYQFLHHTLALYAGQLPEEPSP

[2] = biological target: T2, Tyrosine-protein phosphatase non-receptor type 22 (Homo sapiens, UniProt Q9Y2R2); format: functional
[3] = biological target: T2, Tyrosine-protein phosphatase non-receptor type 22; format: functional; remark: listed apart in the source
[4] = biological target: Lysine-specific demethylase 4A (Homo sapiens, UniProt O75164); experiment: JMJD2A histone demethylase inhibitors, dose response, selectivity assay for GASC-1 inhibitor project, biochemical, DELFIA europium, cherry-picked samples (AID 488840)
[5] = NIH-3T3 fibroblast cytotoxicity, dose response, cytotoxicity control, cell-based, fluorescence, Alamar Blue, secondary assay (AID 2327); format: functional;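 further: NIH-3T3 mouse fibroblasts cultured with fluconazole at 8 µg/mL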
[6] = test system: Streptococcus sp. 'group A'; experiment: growth inhibition of control SK(-) GAS strain, dose response, counter-screen for streptokinase expression inhibitor project, luminescence, kanamycin, BacTiterGlo, confirmation (AID 1900); format: functional, organism-based
Streptokinase A = biological target: T3, Streptokinase A (Streptococcus pyogenes serotype M1, UniProt P10520); experiment: S. pyogenes streptokinase expression inhibitors, potency, dose response, plasminogen activation absorbance, OD405 (AID 1914); format: functional, Streptococcus pyogenes M1 GAS;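 further: secreted streptokinase activity via plasminogen activation per viability signal from cell pellet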
T3 sequence (P10520 whole entry): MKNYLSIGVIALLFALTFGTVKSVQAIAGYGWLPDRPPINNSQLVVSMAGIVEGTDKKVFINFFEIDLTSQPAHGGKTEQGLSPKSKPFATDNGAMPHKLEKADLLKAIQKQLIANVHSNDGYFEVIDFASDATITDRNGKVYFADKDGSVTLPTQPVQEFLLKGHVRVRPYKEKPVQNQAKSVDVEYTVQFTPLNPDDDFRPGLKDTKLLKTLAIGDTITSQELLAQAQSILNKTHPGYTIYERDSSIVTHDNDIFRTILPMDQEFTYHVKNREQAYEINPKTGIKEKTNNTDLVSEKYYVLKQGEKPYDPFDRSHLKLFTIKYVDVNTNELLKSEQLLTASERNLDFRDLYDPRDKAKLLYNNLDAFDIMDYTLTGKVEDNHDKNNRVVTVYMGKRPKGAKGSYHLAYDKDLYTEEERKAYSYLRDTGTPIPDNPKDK

[7] = C. albicans growth with fluconazole, confirmation, fluorescence, retest (AID 2467); format: functional, cell-based
Streptococcus = experiment: Group A Streptococcus viability loss, dose response, counter-screen for streptokinase expression inhibitor project, luminescence, BacTiterGlo (AID 1915); format: functional, organism-based;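 further: potency for reduction of bacterial viability or growth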
[8] = biological target: Intestinal-type alkaline phosphatase (Mus musculus, UniProt P24822); experiment: PubChem AID 488875; format: functional
[9] = biological target: T4, Intestinal-type alkaline phosphatase (Homo sapiens, UniProt P09923); experiment: human intestinal alkaline phosphatase activators, dose response, biochemical, luminescence, uHTS hits (AID 463120); format: functional
[10] = biological target: T4, Intestinal-type alkaline phosphatase; experiment: human IAP activators, dose response, biochemical, luminescent, uHTS hits, set 2 (AID 488817); format: functional;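 further: potency of activators that raise enzyme activity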
[11] = biological target: T5, Alkaline phosphatase, tissue-nonspecific isozyme (Homo sapiens, UniProt P05186); experiment: TNAP enzyme activators, dose response, selectivity assay for human IAP activator project, biochemical, TNAP isozyme, human IAP uHTS hits (AID 488886); format: functional;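 further: potency of compounds raising TNAP activity as a selectivity check on IAP activators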
T5 sequence (P05186 whole entry): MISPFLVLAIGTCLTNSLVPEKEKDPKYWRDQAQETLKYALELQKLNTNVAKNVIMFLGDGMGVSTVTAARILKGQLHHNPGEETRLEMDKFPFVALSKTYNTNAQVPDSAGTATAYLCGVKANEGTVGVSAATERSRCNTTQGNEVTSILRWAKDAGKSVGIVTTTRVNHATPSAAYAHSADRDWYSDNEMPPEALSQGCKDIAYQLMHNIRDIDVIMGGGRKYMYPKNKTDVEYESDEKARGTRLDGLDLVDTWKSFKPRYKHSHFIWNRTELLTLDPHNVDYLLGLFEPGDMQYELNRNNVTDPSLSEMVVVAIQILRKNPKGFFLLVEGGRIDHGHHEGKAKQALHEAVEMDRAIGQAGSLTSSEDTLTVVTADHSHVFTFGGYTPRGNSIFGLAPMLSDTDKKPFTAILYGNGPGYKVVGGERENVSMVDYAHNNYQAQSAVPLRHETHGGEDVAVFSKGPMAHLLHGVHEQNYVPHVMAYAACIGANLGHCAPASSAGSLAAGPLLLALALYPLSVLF

[12] = biological target: T6, G-protein coupled receptor 35 (Homo sapiens, UniProt Q9HC97); experiment: GPR35 antagonists blocking zaprinast-driven arrestin recruitment, primary screen, imaging, U2OS, beta-arrestin-GFP, zaprinast agonist (AID 2058); format: functional;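 further: antagonist potency meaning inhibition of agonist-induced arrestin redistribution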
[13] = biological target: T6, G-protein coupled receptor 35; experiment: SAR Analysis for the identification of Selective Antagonists of ERK1/2 Activity in GPR35-Overexpressing U2OS Cells. [Related pubchem assays: 2079, 2058 ]; format: functional, cell-based
[14] = biological target: G-protein coupled receptor 55 (Homo sapiens, UniProt Q9Y2T6); experiment: GPR55 antagonists, SAR follow-up, counter-screen for GPR35 antagonist project, imaging, image-based (AID 2397); format: functional
Sequence of G-protein coupled receptor 55 (Q9Y2T6 whole entry): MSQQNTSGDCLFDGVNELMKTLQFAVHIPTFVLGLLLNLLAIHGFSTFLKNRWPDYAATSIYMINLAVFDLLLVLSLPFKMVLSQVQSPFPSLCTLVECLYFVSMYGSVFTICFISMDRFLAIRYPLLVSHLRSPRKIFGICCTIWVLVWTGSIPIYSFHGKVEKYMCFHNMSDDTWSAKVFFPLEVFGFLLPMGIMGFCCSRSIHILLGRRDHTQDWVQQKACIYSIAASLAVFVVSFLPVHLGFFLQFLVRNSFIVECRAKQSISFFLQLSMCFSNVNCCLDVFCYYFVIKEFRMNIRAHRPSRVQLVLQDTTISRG

T6 sequence (Q9HC97 whole entry): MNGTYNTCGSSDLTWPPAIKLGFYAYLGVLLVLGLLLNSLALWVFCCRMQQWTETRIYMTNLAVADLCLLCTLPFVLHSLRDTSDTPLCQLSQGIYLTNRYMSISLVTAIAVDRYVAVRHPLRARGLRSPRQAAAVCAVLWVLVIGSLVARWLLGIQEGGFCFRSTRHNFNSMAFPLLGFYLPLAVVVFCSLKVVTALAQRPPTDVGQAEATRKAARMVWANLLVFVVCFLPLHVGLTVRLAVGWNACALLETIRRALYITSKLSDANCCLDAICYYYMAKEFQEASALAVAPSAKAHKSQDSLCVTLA
T4 sequence (P09923 whole entry): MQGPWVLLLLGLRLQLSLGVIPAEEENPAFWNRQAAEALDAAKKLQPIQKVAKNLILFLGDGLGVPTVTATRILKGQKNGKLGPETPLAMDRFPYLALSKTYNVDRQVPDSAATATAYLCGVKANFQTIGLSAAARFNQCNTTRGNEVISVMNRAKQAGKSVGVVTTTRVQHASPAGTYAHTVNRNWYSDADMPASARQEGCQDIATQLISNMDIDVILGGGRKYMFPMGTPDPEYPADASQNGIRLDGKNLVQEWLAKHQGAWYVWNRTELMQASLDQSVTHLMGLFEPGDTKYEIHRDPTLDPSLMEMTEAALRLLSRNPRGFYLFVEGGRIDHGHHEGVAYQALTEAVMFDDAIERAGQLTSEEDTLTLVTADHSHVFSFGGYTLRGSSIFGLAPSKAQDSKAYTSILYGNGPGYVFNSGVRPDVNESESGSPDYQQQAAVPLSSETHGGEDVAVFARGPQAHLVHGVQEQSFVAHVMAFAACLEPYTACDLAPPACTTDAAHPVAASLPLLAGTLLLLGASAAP
T2 sequence (Q9Y2R2 whole entry): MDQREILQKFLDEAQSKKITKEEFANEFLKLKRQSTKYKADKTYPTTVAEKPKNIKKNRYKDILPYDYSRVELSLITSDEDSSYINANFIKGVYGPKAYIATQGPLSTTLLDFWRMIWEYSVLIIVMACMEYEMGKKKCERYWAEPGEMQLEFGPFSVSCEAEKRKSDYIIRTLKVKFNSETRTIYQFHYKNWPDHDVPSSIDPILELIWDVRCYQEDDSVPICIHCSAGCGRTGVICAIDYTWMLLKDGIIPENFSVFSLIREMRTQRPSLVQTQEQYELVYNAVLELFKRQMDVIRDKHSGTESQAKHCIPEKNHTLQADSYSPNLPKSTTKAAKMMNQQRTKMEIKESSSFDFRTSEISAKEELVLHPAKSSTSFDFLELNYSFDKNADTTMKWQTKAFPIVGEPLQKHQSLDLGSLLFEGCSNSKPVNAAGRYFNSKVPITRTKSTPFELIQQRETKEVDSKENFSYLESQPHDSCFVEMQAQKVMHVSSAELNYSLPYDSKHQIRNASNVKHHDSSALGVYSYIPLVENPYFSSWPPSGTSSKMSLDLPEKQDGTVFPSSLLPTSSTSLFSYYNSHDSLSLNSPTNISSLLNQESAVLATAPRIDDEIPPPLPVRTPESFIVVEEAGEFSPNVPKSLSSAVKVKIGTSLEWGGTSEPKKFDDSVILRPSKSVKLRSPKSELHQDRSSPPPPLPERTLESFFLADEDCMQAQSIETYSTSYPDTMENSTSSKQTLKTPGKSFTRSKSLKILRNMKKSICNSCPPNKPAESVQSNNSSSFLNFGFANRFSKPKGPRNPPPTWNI
Sequence of Intestinal-type alkaline phosphatase (Mus musculus, UniProt P24822) (P24822 whole entry): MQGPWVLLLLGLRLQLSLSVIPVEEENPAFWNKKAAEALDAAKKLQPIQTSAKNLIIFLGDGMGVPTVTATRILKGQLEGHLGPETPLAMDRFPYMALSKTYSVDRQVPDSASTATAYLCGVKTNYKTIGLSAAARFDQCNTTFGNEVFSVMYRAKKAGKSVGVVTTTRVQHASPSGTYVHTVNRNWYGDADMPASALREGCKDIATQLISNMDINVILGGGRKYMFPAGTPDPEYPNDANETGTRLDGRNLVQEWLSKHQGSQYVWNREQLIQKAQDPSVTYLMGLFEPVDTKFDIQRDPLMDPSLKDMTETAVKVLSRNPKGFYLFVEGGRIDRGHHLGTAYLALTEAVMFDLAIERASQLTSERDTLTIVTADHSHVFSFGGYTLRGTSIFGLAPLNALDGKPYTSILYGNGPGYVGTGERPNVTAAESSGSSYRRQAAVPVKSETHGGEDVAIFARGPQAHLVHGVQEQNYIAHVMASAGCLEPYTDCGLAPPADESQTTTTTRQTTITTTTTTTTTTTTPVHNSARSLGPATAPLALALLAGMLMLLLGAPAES
Sequence of Lysine-specific demethylase 4A (O75164 whole entry): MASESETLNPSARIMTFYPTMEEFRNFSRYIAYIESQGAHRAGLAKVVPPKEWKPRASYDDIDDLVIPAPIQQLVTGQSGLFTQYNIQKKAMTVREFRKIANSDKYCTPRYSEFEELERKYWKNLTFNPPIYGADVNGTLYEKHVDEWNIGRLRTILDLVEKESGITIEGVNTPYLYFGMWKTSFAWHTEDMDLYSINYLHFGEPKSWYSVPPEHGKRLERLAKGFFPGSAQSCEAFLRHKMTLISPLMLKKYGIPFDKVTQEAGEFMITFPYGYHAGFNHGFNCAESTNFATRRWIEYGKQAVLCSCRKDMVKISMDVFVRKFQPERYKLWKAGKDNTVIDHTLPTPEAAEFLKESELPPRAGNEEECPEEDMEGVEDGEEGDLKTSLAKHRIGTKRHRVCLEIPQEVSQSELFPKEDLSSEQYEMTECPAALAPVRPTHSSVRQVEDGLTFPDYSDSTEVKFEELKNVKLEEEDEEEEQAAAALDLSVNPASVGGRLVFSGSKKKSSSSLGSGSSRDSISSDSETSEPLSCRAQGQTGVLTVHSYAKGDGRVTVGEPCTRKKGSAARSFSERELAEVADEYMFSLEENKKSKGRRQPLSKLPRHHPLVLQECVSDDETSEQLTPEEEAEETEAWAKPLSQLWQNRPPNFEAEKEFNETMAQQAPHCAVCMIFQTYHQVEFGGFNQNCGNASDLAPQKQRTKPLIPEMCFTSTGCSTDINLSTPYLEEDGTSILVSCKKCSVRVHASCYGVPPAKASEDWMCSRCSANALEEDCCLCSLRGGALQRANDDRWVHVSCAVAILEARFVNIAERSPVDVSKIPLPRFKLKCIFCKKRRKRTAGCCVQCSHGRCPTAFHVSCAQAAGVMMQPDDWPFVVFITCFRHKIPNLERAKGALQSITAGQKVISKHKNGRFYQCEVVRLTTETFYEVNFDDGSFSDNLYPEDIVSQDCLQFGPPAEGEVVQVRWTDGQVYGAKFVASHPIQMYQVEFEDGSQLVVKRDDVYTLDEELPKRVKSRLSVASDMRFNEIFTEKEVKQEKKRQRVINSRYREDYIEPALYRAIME

## COc1ccc(N2CCN(CCOc3ccc4c(C)cc(=O)oc4c3)CC2)cc1
[1]
  IC50: > 79.4 µM (inactive)
[2]
  IC50: > 79.4 µM (inactive)
[3]
  IC50: > 79.4 µM (inactive)

## O=C(NN=C1CCCCCCCCCCC1)c1cccc(S(=O)(=O)N2CCOCC2)c1
[4]
  AC50: 18.1 µM (active)

## CC(C)CC(=O)NC(=S)NNC(=O)c1ccc(NC(=O)C2CCCCC2)cc1
[5]
  EC50: 43.7 µM (active)
[6]
  EC50: 0.517 µM (active)
Streptokinase A
  EC50: > 150 µM (not active)
[7]
  EC50: 2.57 µM (active)
Streptococcus
  EC50: 9.89 µM (active)
[8]
  EC50: 43.2 µM (active)
[9]
  EC50: 18.7 µM (active)
[10]
  EC50: 58.1 µM (active)
[11]
  EC50: 70.2 µM (active)

## CC(C)(C)c1ccc(OCCC(=O)NCCc2ccc(S(N)(=O)=O)cc2)cc1
[12]
  IC50: 0.929 µM (active)
[13]
  IC50: 9.95 µM (active)
[14]
  IC50: > 32 µM (inactive)
